Results as given in patent publication US9913843B2, “Protein kinase C inhibitors and uses thereof” (Rigel Pharmaceuticals, Inc., priority 2012, dated 2018).
Read-outs that look alike come from different tables or passages of the source.

Tested on: PKC mediated IL-2 production in human primary T cells
Assay: IL-2 ELISA, human primary T cell, anti CD3+CD28+ (whole cell functional assay for PKC mediated IL-2 production)
Assay type: cell-based
Protocol: Human primary T cells were prepared as follows. Fresh PBMC's from All Cells (Cat # PB002) were re-suspended in RPMI (RPMI-1640 with L-Glutamine; Mediatech, Inc., Herndon Va., cat. #10-040-CM) with 10% FBS and seeded into flasks and incubated at 37° C. for 2 hours to allow the monocytes to adhere. The non-adherent cells were then centrifuged and re-suspended in RPMI medium containing 40 U/ml IL2 and seeded into a flask pre-coated with 1 μg/ml aCD3 and 5 ug/ml aCD28 (Anti-Human CD3, BD Pharmingen Catalog #555336, Anti-Human CD28, Beckman Coulter Catalog #IM1376). The cells were stimulated for 3-4 days, then transferred to a fresh flask and maintained in RPMI (RPMI-1640 with L-Glutamine; Mediatech, Inc., Herndon Va., cat. #10-040-CM) with 10% FBS and 40 U/ml IL-2.
Human primary T cells (100,000 cells per well) were pre-incubated with or without test compound in RPMI-1640 with L-Glutamine and 10% FBS for 1 hour at 37° C. Cells were then stimulated by transferring them to round-bottom 96-well plates pre-coated with 1 μg/ml aCD3 and 5 μg/ml aCD28. For counter assay, cells were instead stimulated by adding 8× stock solutions of PMA and ionomycin in RPMI-1640 with L-Glutamine and 10% FBS (for final concentrations of 0.5 ng/ml PMA and 0.1 μM ionomycin, both from Calbiochem). Cells were incubated at 37° C. for 24 hours before 100 μL supernatants were harvested for quantification of IL-2 by ELISA using Human IL-2 Duoset ELISA Kit from R and D Systems, Cat. # DY202E.
Compounds 1-156 were tested in a whole cell functional assay for PKC mediated IL-2 production as follows. Human primary T cell isolation and culture: Human primary T cells were prepared as follows. Whole blood was obtained from a healthy volunteer, mixed 1:1 with PBS, layered on to Ficoll Hypaque (Amersham Pharmacia Biotech, Piscataway, N.J., Catalog #17-1440-03) in 2:1 blood/PBS:ficoll ratio and centrifuged for 30 minutes at 4° C. at 1750 rpm. The cells at the serum: ficoll interface were recovered and washed twice with 5 volumes of PBS. These freshly isolated human peripheral blood mononuclear cells were cultured in Yssel's medium containing 40 U/ml IL2 in a flask pre-coated with 1 μg/ml aCD3 and 5 μg/ml aCD28 (Anti-Human CD3, BD Pharmingen Catalog #555336, Anti-Human CD28, Beckman Coulter Catalog #IM1376). The cells were stimulated for 3-4 days, then transferred to a fresh flask and maintained in RPMI (RPMI-1640 with L-Glutamine; Mediatech, Inc., Herndon Va., cat. #10-040-CM) with 10% FBS and 40 U/ml IL-2. The primary T-cells were then washed twice with PBS to remove the IL-2.
Primary T cell stimulation and IL2 ELISA: Human primary T cells (100,000 cells per well) were pre-incubated with or without test compound in Yssel's medium for 1 hour at 37° C. Cells were then stimulated by transferring them to round-bottom 96-well plates pre-coated with 1 μg/ml aCD3 and 5 μg/ml αCD28. For counter assay, cells were instead stimulated by adding 8× stock solutions of PMA and ionomycin in Yssels (for final concentrations of 0.5 ng/ml PMA and 0.1 uM ionomycin, both from Calbiochem). Cells were incubated at 37° C. for 24 hours before 100 μL supernatants were harvested for quantification of IL-2 by ELISA using Human IL-2 Duoset ELISA Kit from R and D Systems, Cat. # DY202E.

[1] = 24 h, human primary T cells stimulated with anti-CD3 + anti-CD28, IL-2 by ELISA, read-out: IC50 for blocking IL-2 production
[2] = human primary T cells stimulated with anti-CD3 + anti-CD28, 24 h, IL-2 by ELISA, 8 pt, read-out: IL2 ELISA, Human primary T cell, anti-CD3 + CD28, 8 pt (IC50)

IC50 [1]	IC50 [2]	SMILES
< 30 µM	0.147 µM	C[C@@H](O)COc1cc(F)c(Nc2ncc(C#N)c(NC[C@@H]3CCCN4CCCC[C@H]34)n2)cc1-n1nnn(C)c1=O [Compound 143, 2-((2-fluoro-4-((R)-2-hydroxypropoxy)-5-(4-methyl-5-oxo-4,5-dihydro-1H-tetrazol-1-yl)phenyl)amino)-4-((((1S,9aR)-octahydro-2H-quinolizin-1-yl)methyl)amino)pyrimidine-5-carbonitrile]
< 30 µM	6.58 µM	N#Cc1cc(Nc2ncc(C(F)(F)F)c(NC[C@@H]3CCCN4CCCC[C@H]34)n2)ccc1C1CC1 [Compound 109, 5-(4-(((1S,9aR)-octahydro-1H-quinolizin-1-yl)methylamino)-5-(trifluoromethyl)pyrimidin-2-ylamino)-2-cyclopropylbenzonitrile]
< 30 µM	9.46 µM	CN(C)c1cnc(Nc2cccc(C#N)c2)nc1NC[C@@H]1CCCN2CCCC[C@H]12 [Compound 92, 3-(4-(((1S,9aR)-octahydro-1H-quinolizin-1-yl)methylamino)-5-(dimethylamino)pyrimidin-2-ylamino)benzonitrile]
< 30 µM	0.117 µM	Cc1ccc(Nc2ncc(Cl)c(NC[C@@H]3CCCN4CCCC[C@H]34)n2)cc1-n1cnnn1 [Compound 33, 5-chloro-N4-(((1S,9aR)-octahydro-1H-quinolizin-1-yl)methyl)-N2-(4-methyl-3-(1H-tetrazol-1-yl)phenyl)pyrimidine-2,4-diamine]
< 30 µM	0.0542 µM	Cc1nnnn1-c1cc(Nc2ncc(Cl)c(NC[C@@H]3CCCN4CCCC[C@H]34)n2)ccc1F [Compound 35, 5-chloro-N2-(4-fluoro-3-(5-methyl-1H-tetrazol-1-yl)phenyl)-N4-(((1S,9aR)-octahydro-1H-quinolizin-1-yl)methyl)pyrimidine-2,4-diamine]
< 30 µM	0.169 µM	O=C1COc2cc(Nc3ncc(F)c(NC[C@@H]4CCCN5CCCC[C@H]45)n3)ccc2N1CC1CC1 [Compound 26, 7-(4-(((1S,9aR)-octahydro-1H-quinolizin-1-yl)methylamino)-5-fluoropyrimidin-2-ylamino)-4-(cyclopropylmethyl)-2H-benzo[b][1,4]oxazin-3(4H)-one]
< 30 µM	3.8 µM	N#Cc1cc(Nc2nccc(NC[C@@H]3CCCN4CCCC[C@H]34)n2)c(F)cc1C1CC1 [Compound 56, 5-(4-(((1S,9aR)-octahydro-1H-quinolizin-1-yl)methylamino)pyrimidin-2-ylamino)-2-cyclopropyl-4-fluorobenzonitrile]

The remaining lines, values behind:

SMILES	IC50 [1]	IC50 [2]
Cn1nnn(-c2cc(Nc3ncc(F)c(NC[C@@H]4CCCN5CCCC[C@H]45)n3)c(F)cc2OC(C)(C)CO)c1=O [Compound 148, 1-(4-fluoro-5-((5-fluoro-4-((((1S,9aR)-octahydro-2H-quinolizin-1-yl)methyl)amino)pyrimidin-2-yl)amino)-2-((1-hydroxy-2-methylpropan-2-yl)oxy)phenyl)-4-methyl-1,4-dihydro-5H-tetrazol-5-one]	< 30 µM	1.59 µM
Cc1nnnn1-c1cc(Nc2ncc(F)c(NC[C@@H]3CCCN4CCCC[C@H]34)n2)ccc1F [Compound 8, 5-fluoro-N2-(4-fluoro-3-(5-methyl-1H-tetrazol-1-yl)phenyl)-N4-(((1S,9aR)-octahydro-1H-quinolizin-1-yl)methyl)pyrimidine-2,4-diamine]	< 30 µM	0.106 µM
CN(C)c1cnc(Nc2ccc3oc(=O)[nH]c3c2)nc1NC[C@@H]1CCCN2CCCC[C@H]12 [Compound 97, 5-(4-(((1S,9aR)-octahydro-1H-quinolizin-1-yl)methylamino)-5-(dimethylamino)pyrimidin-2-ylamino)benzo[d]oxazol-2(3H)-one]	< 30 µM	5.41 µM
COc1cc(Nc2ncc(F)c(NC[C@@H]3CCCN4CCCC[C@H]34)n2)cc(OC)c1 [Compound 11, 5-fluoro-N4-(((1S,9aR)-octahydro-1H-quinolizin-1-yl)methyl)-N2-(3,5-dimethoxyphenyl)pyrimidine-2,4-diamine]	< 30 µM	1.08 µM
N#Cc1cc(Nc2ncc(F)c(NC[C@@H]3CCCN4CCCC[C@H]34)n2)c(F)cc1C1CC1 [Compound 12, 5-(4-(((1S,9aR)-octahydro-1H-quinolizin-1-yl)methylamino)-5-fluoropyrimidin-2-ylamino)-2-cyclopropyl-4-fluorobenzonitrile]	< 30 µM	0.889 µM
N#Cc1cc(Nc2ncc(Cl)c(NCC3CCCN4CCCCC34)n2)ccc1C1CC1 [Compound 5, 5-(4-(((1S,9aR)-octahydro-1H-quinolizin-9-yl)methylamino)-5-chloropyrimidin-2-ylamino)-2-cyclopropylbenzonitrile]	< 30 µM	0.12 µM
N#Cc1cc(Nc2ncc(C(F)(F)F)c(NC[C@@H]3CCCN4CCCC[C@H]34)n2)c(F)cc1C1CC1 [Compound 110, 5-(4-(((1S,9aR)-octahydro-1H-quinolizin-1-yl)methylamino)-5-(trifluoromethyl)pyrimidin-2-ylamino)-2-cyclopropyl-4-fluorobenzonitrile]	< 30 µM	10.7 µM
Cn1nnn(-c2cc(Nc3ncc(C#N)c(NC[C@@H]4CCCN5CCCC[C@H]45)n3)c(F)cc2OCCO)c1=O [Compound 135, 2-((2-fluoro-4-(2-hydroxyethoxy)-5-(4-methyl-5-oxo-4,5-dihydro-1H-tetrazol-1-yl)phenyl)amino)-4-((((1S,9aR)-octahydro-2H-quinolizin-1-yl)methyl)amino)pyrimidine-5-carbonitrile]	< 30 µM	
COCCOc1cc(F)c(Nc2ncc(C#N)c(NC[C@@H]3CCCN4CCCC[C@H]34)n2)cc1-n1nnn(C)c1=O [Compound 129, 2-((2-fluoro-4-(2-methoxyethoxy)-5-(4-methyl-5-oxo-4,5-dihydro-1H-tetrazol-1-yl)phenyl)amino)-4-((((1S,9aR)-octahydro-2H-quinolizin-1-yl)methyl)amino)pyrimidine-5-carbonitrile]	< 30 µM	1.34 µM
N#Cc1cc(Nc2nccc(NC[C@@H]3CCCN4CCCC[C@H]34)n2)ccc1C1CC1 [Compound 55, 5-(4-(((1S,9aR)-octahydro-1H-quinolizin-1-yl)methylamino)pyrimidin-2-ylamino)-2-cyclopropylbenzonitrile]	< 30 µM	0.607 µM
N#Cc1cnc(Nc2ccc(F)c(-n3nnnc3C3CC3)c2)nc1NC[C@@H]1CCCN2CCCC[C@H]12 [Compound 122, 4-(((1S,9aR)-octahydro-1H-quinolizin-1-yl)methylamino)-2-(3-(5-cyclopropyl-1H-tetrazol-1-yl)-4-fluorophenylamino)pyrimidine-5-carbonitrile]	< 30 µM	0.0206 µM
COc1ccc(Nc2ncc(C)c(NC[C@@H]3CCCN4CCCC[C@H]34)n2)cc1-n1nnnc1C [Compound 64, N4-(((1S,9aR)-octahydro-1H-quinolizin-1-yl)methyl)-N2-(4-methoxy-3-(5-methyl-1H-tetrazol-1-yl)phenyl)-5-methylpyrimidine-2,4-diamine]	< 30 µM	0.459 µM
COc1cc(Nc2ncc(Cl)c(NC[C@@H]3CCCN4CCCC[C@H]34)n2)cc(-n2nnnc2C)c1 [Compound 38, 5-chloro-N4-(((1S,9aR)-octahydro-1H-quinolizin-1-yl)methyl)-N2-(3-methoxy-5-(5-methyl-1H-tetrazol-1-yl)phenyl)pyrimidine-2,4-diamine]	< 30 µM	0.126 µM
